Counter-ions that a name gives are not always drawn.

As usually defined, the melting point is the temperature, or range, at which the solid turns liquid. For orientation: IC50 means the midpoint of a concentration-inhibition curve.

For data set [1], the target named is T1, MMP-7FL (full length matrilysin) (Homo sapiens, UniProt P09237).
T1 sequence (P09237 95-267): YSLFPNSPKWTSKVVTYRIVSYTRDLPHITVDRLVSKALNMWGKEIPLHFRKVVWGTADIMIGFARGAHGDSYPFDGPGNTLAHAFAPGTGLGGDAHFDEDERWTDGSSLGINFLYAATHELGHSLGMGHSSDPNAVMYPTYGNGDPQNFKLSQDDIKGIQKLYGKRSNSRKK
In words: Thiopeptolide substrate hydrolysis assay, MMP-7FL. The class given is biochemical. The note with it: HEPES pH 7.0, 22° C., read-out: IC50 (μM) Versus Certain MMPs: MMP-07 FL. An excerpt:
(§1) The invention compounds of Formula I have been evaluated in standard assays for their ability to inhibit the catalytic activity of various MMP enzymes.
(§2) Thiopeptolide substrates show virtually no decomposition or hydrolysis at or below neutral pH in the absence of a matrix metalloproteinase enzyme.
(§3) Several representative compounds have been evaluated for their ability to inhibit various matrix metalloproteinase enzymes.

In data set [2] the target is T2, MMP-2FL (full length Gelatinase A) (Homo sapiens, UniProt P08253).
T2 sequence (P08253 110-660): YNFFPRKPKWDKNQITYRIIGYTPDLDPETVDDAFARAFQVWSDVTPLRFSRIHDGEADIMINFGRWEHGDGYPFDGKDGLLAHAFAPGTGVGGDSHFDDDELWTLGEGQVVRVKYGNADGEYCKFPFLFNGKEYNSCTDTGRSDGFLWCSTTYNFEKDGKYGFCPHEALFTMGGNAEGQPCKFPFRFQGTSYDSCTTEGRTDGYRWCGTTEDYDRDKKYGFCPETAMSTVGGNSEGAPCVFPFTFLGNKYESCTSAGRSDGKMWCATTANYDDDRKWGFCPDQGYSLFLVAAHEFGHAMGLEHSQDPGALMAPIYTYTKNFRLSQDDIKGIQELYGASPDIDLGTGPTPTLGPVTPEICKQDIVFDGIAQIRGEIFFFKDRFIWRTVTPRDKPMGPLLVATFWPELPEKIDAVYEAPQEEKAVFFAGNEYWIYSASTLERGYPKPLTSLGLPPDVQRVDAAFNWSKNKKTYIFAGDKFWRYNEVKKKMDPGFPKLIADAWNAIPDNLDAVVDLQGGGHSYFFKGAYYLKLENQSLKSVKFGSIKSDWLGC
In words: Thiopeptolide substrate hydrolysis assay, MMP-2FL. The class given is biochemical. The following applies: HEPES pH 7.0, 22° C., read-out: IC50 (μM) Versus Certain MMPs: MMP-02 FL.
Excerpt: as §1, §2, §3

Data set [3] concerns the target MMP-9FL (full length Gelatinase B) (Homo sapiens, UniProt P14780). In words: Thiopeptolide substrate hydrolysis assay, MMP-9FL. The following applies: HEPES pH 7.0, 22° C., read-out: IC50 (μM) Versus Certain MMPs: MMP-09 FL. The class given is biochemical.
Excerpt: as §1, §2, §3

In data set [4] the target is MMP-14CD (catalytic domain of MMP-14) (Homo sapiens, UniProt P50281). The data set is described as follows: Thiopeptolide substrate hydrolysis assay, MMP-14CD. The class given is biochemical. The following applies: HEPES pH 7.0, 22° C., read-out: IC50 (μM) Versus Certain MMPs: MMP-14 CD.
Excerpt: as §1, §2, §3

The target in data set [5] is MMP-13CD (catalytic domain of collagenase 3) (Homo sapiens, UniProt P45452). In words: Thiopeptolide substrate hydrolysis assay, MMP-13CD. Format: biochemical. The following applies: thiopeptolide substrate, HEPES pH 7.0, 22° C.; read-out: IC50 (μM) Versus Certain MMPs: MMP-13 CD.
Excerpt: as §2

Sequence of MMP-9FL (full length Gelatinase B) (P14780 94-707, species assumed): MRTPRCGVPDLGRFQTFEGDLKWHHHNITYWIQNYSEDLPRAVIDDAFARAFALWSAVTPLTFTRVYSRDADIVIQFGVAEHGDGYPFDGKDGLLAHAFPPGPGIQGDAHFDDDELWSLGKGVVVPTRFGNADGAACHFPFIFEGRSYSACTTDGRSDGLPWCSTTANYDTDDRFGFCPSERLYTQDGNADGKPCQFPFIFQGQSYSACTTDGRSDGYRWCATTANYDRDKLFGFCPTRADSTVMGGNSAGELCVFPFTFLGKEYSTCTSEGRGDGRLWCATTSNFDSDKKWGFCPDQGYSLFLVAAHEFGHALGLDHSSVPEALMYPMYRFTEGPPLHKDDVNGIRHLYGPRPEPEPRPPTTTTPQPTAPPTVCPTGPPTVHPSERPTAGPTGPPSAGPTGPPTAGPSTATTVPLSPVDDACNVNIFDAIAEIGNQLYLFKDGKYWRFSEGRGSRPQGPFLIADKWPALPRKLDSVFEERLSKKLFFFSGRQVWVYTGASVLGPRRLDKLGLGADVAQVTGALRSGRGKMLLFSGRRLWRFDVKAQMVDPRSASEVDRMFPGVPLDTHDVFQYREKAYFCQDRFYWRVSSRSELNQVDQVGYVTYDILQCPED

In the case of `COC(=O)c1ccc(Cn2c(=O)c(C)c3sc(C(=O)NCc4ccc(F)cc4)cn3c2=O)cc1` [Example 106, 4-[2-(4-Fluoro-benzylcarbamoyl)-8-methyl-5,7-dioxo-7H-thiazolo[3,2-c]pyrimidin-6-ylmethyl]-benzoic acid methyl ester], the melting point is > 215 °C. Further, the IC50 in data set [1] was > 30 µM. Moreover, the IC50 in data set [2] was > 30 µM. Besides, the IC50 in data set [3] was > 100 µM. Moreover, in data set [4], the IC50 was > 100 µM.

`COC(=O)c1ccc(Cn2c(=O)c(C)c3sc(C(=O)NCc4ccc(F)cc4)cn3c2=O)cc1Cl` [Example 65, 2-Chloro-4-[2-(4-fluoro-benzylcarbamoyl)-8-methyl-5,7-dioxo-7H-thiazolo[3,2-c]pyrimidin-6-ylmethyl]-benzoic acid methyl ester] gave a melting point of 176 to 178 °C. Also, in data set [1], the IC50 amounted to 26 µM. For the same compound, in data set [2], the IC50 was > 30 µM. In addition, the IC50 in data set [3] was > 30 µM. Also, the IC50 in data set [4] is > 30 µM.

For `O=C(NCc1ccccc1)c1cn2c(=O)n(Cc3ccncc3)c(=O)cc2s1` (as salt: hydrochloride) (hydrate or solvate) [Example 15, 6-(4-Pyridylmethyl)-5,7-dioxo-6,7-dihydro-5H-thiazolo[3,2-c]pyrimidine-2-carboxylic acid benzylamide hydrochloride], the melting point is > 210 °C.

Regarding `Cc1c(=O)n(Cc2ccc(C#N)cc2)c(=O)n2cc(C(=O)NCc3ccncc3)sc12` [Example 85, 6-(4-Cyano-benzyl)-8-methyl-5,7-dioxo-6,7-dihydro-5H-thiazolo[3,2-c]pyrimidine-2-carboxylic acid(pyridin-4-ylmethyl)-amide hydrochloride], the IC50 in data set [1] was > 30 µM; in data set [5], 0.0547 µM; in data set [2] it was > 30 µM; in data set [3], > 30 µM; in data set [4], > 30 µM.

As for `Cc1c(=O)n(Cc2ccc(C(=O)OC(C)(C)C)cc2)c(=O)n2ccsc12` [Example 104, 4-(8-Methyl-5,7-dioxo-7H-thiazolo[3,2-c]pyrimidin-6-ylmethyl)-benzoic acid tert-butyl ester], the melting point was in the range of 163 to 165 °C.

The compound `Cc1c(=O)n(Cc2ccccc2)c(=O)n2cc(C(=O)NCc3ccccc3)sc12` [Example 16, 6-Benzyl-8-methyl-5,7-dioxo-6,7-dihydro-5H-thiazolo[3,2-c]pyrimidine-2-carboxylic acid benzylamide] displayed a melting point of 176 to 178 °C. For the same compound, the IC50 in data set [1] was > 30 µM. Also, the IC50 in data set [2] is > 100 µM. Also, the IC50 in data set [3] was > 100 µM. Besides, the IC50 in data set [4] is > 30 µM.

Compound `COc1ccc(CNC(=O)c2cn3c(=O)n(Cc4ccc(Cl)c(Cl)c4)c(=O)cc3s2)cc1` [Example 102, 6-(3,4-Dichloro-benzyl)-5,7-dioxo-6,7-dihydro-5H-thiazolo[3,2-c]pyrimidine-2-carboxylic acid 4-methoxy-benzylamide] returned a melting point of 206 to 207 °C.

`Cc1c(=O)n(Cc2ccc(C#N)cc2)c(=O)n2cc(C(=O)NCc3ccc(F)cc3)sc12` [Example 107, 6-(4-Cyano-benzyl)-8-methyl-5,7-dioxo-6,7-dihydro-5H-thiazolo[3,2-c]pyrimidine-2-carboxylic acid 4-fluoro-benzylamide]: the melting point was > 220 °C. Moreover, the IC50 in data set [1] was > 30 µM. Further, the 50% inhibitory concentration (IC50) in data set [2] is > 30 µM. Moreover, the IC50 in data set [3] is > 30 µM. The IC50 in data set [4] is > 30 µM.

`Cc1c(=O)n(Cc2ccccc2)c(=O)n2cc(C(=O)NCc3ccc(Cl)c(Cl)c3)sc12` [Example 18, 6-Benzyl-8-methyl-5,7-dioxo-6,7-dihydro-5H-thiazolo[3,2-c]pyrimidine-2-carboxylic acid 3,4-dichlorobenzylamide] yielded a melting point of 180 to 182 °C. Further, in data set [1], the half-inhibitory concentration (IC50) is > 30 µM. Moreover, the IC50 in data set [2] is > 30 µM. Further, in data set [3], the IC50 was > 30 µM. In addition, the half-inhibitory concentration (IC50) in data set [4] was > 30 µM.

In the case of `O=C(NCc1ccccc1)c1cn2c(=O)n(Cc3ccc(Cl)cc3)c(=O)cc2s1` [Example 13, 6-(4-Chlorobenzyl)-5,7-dioxo-6,7-dihydro-5H-thiazolo[3,2-c]pyrimidine-2-carboxylic acid benzylamide], the melting point is > 220 °C. For the same compound, the IC50 in data set [1] is > 100 µM. The concentration for half-maximal inhibition (IC50) in data set [2] was > 100 µM. Further, the IC50 in data set [3] was > 100 µM. Further, the concentration for half-maximal inhibition (IC50) in data set [4] is > 100 µM.

As to `Cc1c(=O)[nH]c(=O)n2ccsc12` [Example 53, 8-Methyl-thiazolo[3,2-c]pyrimidine-5,7-dione], the melting point was > 230 °C. In addition, the IC50 in data set [5] is > 100 µM.

As for `COC(=O)c1ccc(Cn2c(=O)c(C)c3sc(C(=O)NCc4ccc(F)cc4)cn3c2=O)cc1C` [Example 68, 4-[2-(4-Fluoro-benzylcarbamoyl)-8-methyl-5,7-dioxo-7H-thiazolo[3,2-c]pyrimidin-6-ylmethyl]-2-methyl-benzoic acid methyl ester], the melting point lay within 179 to 180 °C. In addition, in data set [1], the IC50 was > 100 µM. In addition, the IC50 in data set [2] is > 100 µM. Also, the IC50 in data set [3] was > 100 µM. The IC50 in data set [4] was > 100 µM.

Regarding `COc1ccc(CNC(=O)c2cn3c(=O)n(Cc4ccc(C(=O)O)cc4)c(=O)c(C)c3s2)cc1` [Example 55, 4-[2-(4-Methoxy-benzylcarbamoyl)-8-methyl-5,7-dioxo-7H-thiazolo[3,2-c]pyrimidin-6-ylmethyl]-benzoic acid], the melting point is > 210 °C.

The compound `O=C(NCc1ccc(Cl)c(Cl)c1)c1cn2c(=O)n(Cc3ccc(Cl)cc3)c(=O)cc2s1` [Example 14, 6-(4-Chlorobenzyl)-5,7-dioxo-6,7-dihydro-5H-thiazolo[3,2-c]pyrimidine-2-carboxylic acid 3,4-dichlorobenzylamide] returned a melting point of 218 to 219 °C. Also, in data set [1], the concentration for half-maximal inhibition (IC50) was determined as 25 µM. The IC50 in data set [2] is > 30 µM. Besides, the IC50 in data set [3] is > 30 µM. In addition, in data set [4], the IC50 is > 100 µM.

With `Cc1c(=O)[nH]c(=O)n2cc(C(=O)O)sc12` [Example 54, 8-Methyl-5,7-dioxo-6,7-dihydro-5H-thiazolo[3,2-c]pyrimidine-2-carboxylic acid], the melting point was > 205 °C.

For `Cc1c(=O)n(Cc2ccc(C(=O)O)cc2)c(=O)n2cc(C(=O)NCc3ccc(F)cc3)sc12` [Example 58, 4-[2-(4-Fluoro-benzylcarbamoyl)-8-methyl-5,7-dioxo-7H-thiazolo[3,2-c]pyrimidin-6-ylmethyl]-benzoic acid], the half-maximal inhibitory concentration (IC50) in data set [1] was > 100 µM; in data set [5], 0.00222 µM; in data set [2], > 100 µM; in data set [3], > 100 µM; in data set [4] it was > 100 µM.

As for `COC(=O)c1ccc(Cn2c(=O)c(C)c3sc(C(=O)NCc4cccc(F)c4)cn3c2=O)cc1` [Example 105, 4-[2-(3-Fluoro-benzylcarbamoyl)-8-methyl-5,7-dioxo-7H-thiazolo[3,2-c]pyrimidin-6-ylmethyl]-benzoic acid methyl ester], the melting point lay within 209 to 211 °C. Further, the half-maximal inhibitory concentration (IC50) in data set [1] was 27 µM. Besides, the IC50 in data set [2] was > 30 µM. Moreover, the IC50 in data set [3] is > 30 µM. Further, the 50% inhibitory concentration (IC50) in data set [4] is > 30 µM.

Consider `O=C(NCc1ccccc1)c1cn2c(=O)n(C(=O)c3ccccc3)c(=O)cc2s1` [Example 11, 6-Benzoyl-5,7-dioxo-6,7-dihydro-5H-thiazolo[3,2-c]pyrimidine-2-carboxylic acid benzylamide], for which the melting point was 204 to 207 °C (dec.). Also, the IC50 in data set [1] was > 30 µM. Also, the IC50 in data set [2] is > 30 µM. The IC50 in data set [3] was > 30 µM. In data set [4], the IC50 was > 30 µM.

Turning to `COc1ccc(CNC(=O)c2cn3c(=O)n(Cc4ccccc4)c(=O)c(C)c3s2)cc1` [Example 17, 6-Benzyl-8-methyl-5,7-dioxo-6,7-dihydro-5H-thiazolo[3,2-c]pyrimidine-2-carboxylic acid 4-methoxybenzylamide], the melting point lay within 160 to 162 °C. Besides, the IC50 in data set [1] was > 30 µM. For the same compound, the half-maximal inhibitory concentration (IC50) in data set [2] is > 30 µM. Also, the IC50 in data set [3] was > 30 µM. Also, the IC50 in data set [4] is > 30 µM.

Values taken from patent US20060040957A1, “BICYCLIC PYRIMIDINE MATRIX METALLOPROTEINASE INHIBITORS” (priority 2001, published 2006).
